Test results from PMC10649961, “Novel Mitochondria-Targeted Amphiphilic Aminophosphonium Salts and Lipids Nanoparticles: Synthesis, Antitumor Activity and Toxicity” (Nanomaterials, 2023).
Where two headings read alike, the source gives them in different places.

What was measured:
[1] = test system: Staphylococcus aureus ATCC 6538 P FDA 209P; assay: Antimicrobial activity, serial microdilutions, Sa; type: cell-based; parameters: key to Minimum bactericidal and fungicidal concentrations (MBC, MFC): – means non-active; details: for MIC / MBC: Staphylococcus aureus; for MIC: read-out: Minimum Inhibitory Concentration (MIC); for MBC: read-out: Minimum bactericidal and fungicidal concentrations (MBC, MFC)
Experimental: (§1) The antimicrobial activity of test compounds was determined by serial microdilutions in 96-well plates using Mueller-Hinton broth for bacterial culture and Sabouraud broth for yeast culture. Cultures of Gram-positive bacteria were used in the experiment: Staphylococcus aureus ATCC 6538 P FDA 209P, Bacillus cereus ATCC 10702 NCTC 8035, Enterococcus faecalis ATCC 29212; Gram-negative bacteria: Escherichia coli ATCC 25922, Pseudomonas aeruginosa ATCC 9027; and yeast: Candida albicans ATCC 10231, purchased from the State Collection of Pathogenic Microorganisms and Cell Cultures “SCPM-Obolensk” (Obolensk, Russia). Methicillin-resistant strains of S. aureus (MRSA) were isolated from patients with chronic tonsillitis (MRSA-1) and sinusitis (MRSA-2) in the bacteriological laboratory of the Republican Clinical Hospital (Kazan, Russia). The experiments were carried out in triplicate.

[2] = test system: Bacillus cereus ATCC 10702 NCTC 8035; assay: Antimicrobial activity, serial microdilutions, Bc; type: cell-based; parameters: key to Minimum bactericidal and fungicidal concentrations (MBC, MFC): – means non-active; details: for MIC / MBC: Bacillus cereus; for MIC: read-out: Minimum Inhibitory Concentration (MIC); for MBC: read-out: Minimum bactericidal and fungicidal concentrations (MBC, MFC)
Experimental: as §1

[3] = test system: Enterococcus faecalis ATCC 29212; assay: Antimicrobial activity, serial microdilutions, Ef; type: cell-based; parameters: key to Minimum Inhibitory Concentration (MIC) / Minimum bactericidal and fungicidal concentrations (MBC, MFC): – means non-active; details: for MIC / MBC: Enterococcus faecalis; for MIC: ATCC29212, read-out: Minimum Inhibitory Concentration (MIC); for MBC: ATCC29212, read-out: Minimum bactericidal and fungicidal concentrations (MBC, MFC)
Experimental: as §1

[4] = test system: MRSA-1; assay: Antimicrobial activity, serial microdilutions, MRSA-1; type: cell-based, S. aureus; parameters: key to Minimum Inhibitory Concentration (MIC) / Minimum bactericidal and fungicidal concentrations (MBC, MFC): – means non-active; details: for MIC / MBC: Staphylococcus aureus; for MIC: read-out: Minimum Inhibitory Concentration (MIC); for MBC: read-out: Minimum bactericidal and fungicidal concentrations (MBC, MFC)
Experimental: as §1

[5] = test system: MRSA-2; assay: Antimicrobial activity, serial microdilutions, MRSA-2; type: cell-based, S. aureus; details: Staphylococcus aureus; for MIC: read-out: Minimum Inhibitory Concentration (MIC); for MBC: read-out: Minimum bactericidal and fungicidal concentrations (MBC, MFC)
Experimental: as §1

[6] = test system: Escherichia coli ATCC 25922; assay: Antimicrobial activity, serial microdilutions, Ec; type: cell-based; parameters: key to Minimum Inhibitory Concentration (MIC) / Minimum bactericidal and fungicidal concentrations (MBC, MFC): – means non-active; details: for MIC / MBC: Escherichia coli; for MIC: ATCC25922, read-out: Minimum Inhibitory Concentration (MIC); for MBC: ATCC25922, read-out: Minimum bactericidal and fungicidal concentrations (MBC, MFC)
Experimental: as §1

[7] = test system: Pseudomonas aeruginosa ATCC 9027; assay: Antimicrobial activity, serial microdilutions, Pa; type: cell-based; parameters: key to Minimum Inhibitory Concentration (MIC) / Minimum bactericidal and fungicidal concentrations (MBC, MFC): – means non-active; details: for MIC / MBC: Pseudomonas aeruginosa; for MIC: ATCC9027, read-out: Minimum Inhibitory Concentration (MIC); for MBC: ATCC9027, read-out: Minimum bactericidal and fungicidal concentrations (MBC, MFC)
Experimental: as §1

[8] = test system: Candida albicans ATCC 10231; assay: Antimicrobial activity, serial microdilutions, Ca; type: cell-based; parameters: key to Minimum Inhibitory Concentration (MIC) / Minimum bactericidal and fungicidal concentrations (MBC, MFC): – means non-active; details: for MIC / MBC: Candida albicans, ATCC10231; for MIC: read-out: Minimum Inhibitory Concentration (MIC); for MBC: read-out: Minimum bactericidal and fungicidal concentrations (MBC, MFC)
Experimental: as §1

[9] = test system: M-HeLa; details: calculated relative to the cell line WI38 (a)
[10] = test system: MCF-7
[11] = test system: HuTu 80; details: calculated relative to the cell line WI38 (a)
[12] = test system: PANC-1; details: calculated relative to the cell line WI38 (a)
[13] = test system: A549
[14] = test system: PC3
[15] = test system: T98G
[16] = test system: Hep G2
[17] = test system: SK-OV-3
[18] = test system: DU-145
[19] = test system: M-HeLa; assay: cells; details: Homo sapiens, 48 h, read-out: Cytotoxic Effects (IC50)
[20] = test system: MCF-7; assay: cells; details: Homo sapiens, MCF7, 48 h, read-out: Cytotoxic Effects (IC50)
[21] = test system: HuTu 80; assay: cells; details: Homo sapiens, HuTu80, 48 h, read-out: Cytotoxic Effects (IC50)
[22] = test system: PANC-1; assay: cells; details: Homo sapiens, PANC-1, 48 h, read-out: Cytotoxic Effects (IC50)
[23] = test system: A549; assay: cells; details: Homo sapiens, A549, 48 h, read-out: Cytotoxic Effects (IC50)
[24] = test system: PC3; assay: cells; details: Homo sapiens, PC-3, 48 h, read-out: Cytotoxic Effects (IC50), PC3, MTT assay, 48 h
[25] = test system: T98G; assay: cells; details: Homo sapiens, 48 h, read-out: Cytotoxic Effects (IC50)
[26] = test system: Hep G2; assay: cells; details: Homo sapiens, HepG2, 48 h, read-out: Cytotoxic Effects (IC50)
[27] = test system: SK-OV-3; assay: cells; details: Homo sapiens, SK-OV-3, 48 h, read-out: Cytotoxic Effects (IC50)
[28] = test system: DU-145; assay: cells; details: Homo sapiens, DU-145, 48 h, read-out: Cytotoxic Effects (IC50), DU-145, MTT assay, 48 h
[29] = reference normal cell line not marked at the place (ns cells)
[30] = calculated relative to the cell line WI38 (a)

Structure (SMILES) | MIC [1] [µM] | MBC [1] [µM] | MIC ([2]; Bc) [µM] | MBC [2] [µM] | MIC [4] [µM] | MIC [5] [µM] | MBC [5] [µM] | selectivity index (SI) [9] | selectivity index (SI) [11] | selectivity index (SI) [12] | IC50 [19] [nM] | IC50 [20] [nM] | IC50 [21] [nM] | IC50 [22] [nM] | IC50 [23] [nM] | IC50 [24] [nM] | IC50 [25] [nM] | IC50 [26] [nM] | IC50 [27] [nM] | IC50 [28] [nM] | other results
CCCCCCCCCC[P+](c1ccccc1)(c1ccccc1)N(CC)CC [6d, Decyl(diethylamino)diphenylphosphonium iodide] | 0.9 ± 0.08 | 62.5 ± 5.4 | 0.9 ± 0.08 | 250 ± 21 | 0.5 ± 0.03 | 0.5 ± 0.03 | 0.9 ± 0.08 | 1.6 | 1.1 | 1.0 | 240 ± 20 | 1600 ± 100 | 350 ± 20 | 400 ± 30 | 8200 ± 700 | 1400 ± 100 | 600 ± 50 | 1300 ± 100 | 3900 ± 400 | 430 ± 30 | MIC [3]: 3.9 ± 0.3 µM; MBC [3]: 250 ± 19 µM; MBC [4]: 0.9 ± 0.07 µM; MIC [6]: 62.5 ± 5.3 µM; MBC [6]: 62.5 ± 5.5 µM; MIC [7]: 125 ± 10 µM; MBC [7]: 125 ± 9 µM; MIC [8]: 62.5 ± 5.4 µM; MBC [8]: 250 ± 19 µM; selectivity index (SI) [10, 29]: ns (ns—no selectivity); selectivity index (SI) [13, 29]: ns (ns—no selectivity); selectivity index (SI) [14, 29]: ns (ns—no selectivity); selectivity index (SI) [15, 29]: ns (ns—no selectivity); selectivity index (SI) [16, 29]: ns (ns—no selectivity); selectivity index (SI) [17, 29]: ns (ns—no selectivity); selectivity index (SI) [18, 30]: 1.0
CCCCCCCCCCCCCC[P+](c1ccccc1)(c1ccccc1)N(CC)CC [6e, (Diethylamino)diphenyl(tetradecyl)phosphonium bromide] | 0.5 ± 0.04 | 0.5 ± 0.04 | 0.9 ± 0.08 | 31.3 ± 2.5 | 0.5 ± 0.04 | 0.5 ± 0.03 | 0.5 ± 0.04 | 7.0 | 40 | 9.3 | 400 ± 30 | 1200 ± 100 | 70 ± 5 | 300 ± 20 | 2100 ± 100 | 1500 ± 100 | 1100 ± 90 | 1400 ± 100 | 1600 ± 100 | 400 ± 20 | MIC [3]: 0.5 ± 0.03 µM; MBC [3]: 0.9 ± 0.1 µM; MBC [4]: 1.9 ± 0.1 µM; MIC [6]: 31.3 ± 2.4 µM; MBC [6]: 125 ± 11 µM; MIC [7]: 3.9 ± 0.3 µM; MBC [7]: 3.9 ± 0.4 µM; MIC [8]: 1.9 ± 0.1 µM; MBC [8]: 15.6 ± 1.2 µM; selectivity index (SI) [10, 30]: 2.3; selectivity index (SI) [13, 30]: 1.3; selectivity index (SI) [14, 30]: 1.9; selectivity index (SI) [15, 30]: 2.5; selectivity index (SI) [16, 30]: 2.0; selectivity index (SI) [17, 30]: 1.8; selectivity index (SI) [18, 30]: 7.0
CCCCCCCC[N+](CC)(CC)CC [compound 7, Triethyloctylammonium iodide, reference compound] | 250 ± 20 |  | 500 ± 47 |  | 250 ± 19 | 250 ± 20 | 500 ± 47 | 3.0 | 26 | 1.1 | 16100 ± 1300 | 29100 ± 2000 | 1900 ± 200 | 44600 ± 3100 | > 100000 | 32700 ± 2300 | > 100000 | > 100000 | 69000 ± 4800 | 58000 ± 4100 | Minimum bactericidal and fungicidal concentrations (MBC, MFC) [1]: –; Minimum bactericidal and fungicidal concentrations (MBC, MFC) ([2]; Bc): –; Minimum Inhibitory Concentration (MIC) [3]: –; Minimum bactericidal and fungicidal concentrations (MBC, MFC) [3]: –; Minimum bactericidal and fungicidal concentrations (MBC, MFC) [4]: –; Minimum Inhibitory Concentration (MIC) [6]: –; Minimum bactericidal and fungicidal concentrations (MBC, MFC) [6]: –; Minimum Inhibitory Concentration (MIC) [7]: –; Minimum bactericidal and fungicidal concentrations (MBC, MFC) [7]: –; Minimum Inhibitory Concentration (MIC) ([8]; Ca): –; Minimum bactericidal and fungicidal concentrations (MBC, MFC) ([8]; Ca): –; selectivity index (SI) [10, 30]: 1.7; selectivity index (SI) [13, 29]: ns (ns—no selectivity); selectivity index (SI) [14, 30]: 1.5; selectivity index (SI) [15, 29]: ns (ns—no selectivity); selectivity index (SI) [16, 29]: ns (ns—no selectivity); selectivity index (SI) [17, 29]: ns (ns—no selectivity); selectivity index (SI) [18, 29]: ns (ns—no selectivity)
